In patent EP0560267B1, “Isosteric antiherpes peptide derivatives” (BOEHRINGER INGELHEIM (CANADA) LTD., priority 1992, dated 1993):
Like-named read-outs stand apart in the source and are kept apart here.

Key:
[1] = molecular target: T1, HSV-1 ribonucleotide reductase (Human herpesvirus 1, UniProt P08543); assay: Inhibition of Herpes Simplex Virus (HSV-1) ribonucleotide reductase; assay type: biochemical
T1 construct: HSV-1 ribonucleotide reductase (partially purified) was obtained from quiescent BHK-21/C13 cells infected with strain F HSV-1 virus; made in house; host or cells: quiescent BHK-21/C13 cells infected with HSV-1 strain F (virus-encoded enzyme, partially purified)
T1 sequence (P08543 whole entry): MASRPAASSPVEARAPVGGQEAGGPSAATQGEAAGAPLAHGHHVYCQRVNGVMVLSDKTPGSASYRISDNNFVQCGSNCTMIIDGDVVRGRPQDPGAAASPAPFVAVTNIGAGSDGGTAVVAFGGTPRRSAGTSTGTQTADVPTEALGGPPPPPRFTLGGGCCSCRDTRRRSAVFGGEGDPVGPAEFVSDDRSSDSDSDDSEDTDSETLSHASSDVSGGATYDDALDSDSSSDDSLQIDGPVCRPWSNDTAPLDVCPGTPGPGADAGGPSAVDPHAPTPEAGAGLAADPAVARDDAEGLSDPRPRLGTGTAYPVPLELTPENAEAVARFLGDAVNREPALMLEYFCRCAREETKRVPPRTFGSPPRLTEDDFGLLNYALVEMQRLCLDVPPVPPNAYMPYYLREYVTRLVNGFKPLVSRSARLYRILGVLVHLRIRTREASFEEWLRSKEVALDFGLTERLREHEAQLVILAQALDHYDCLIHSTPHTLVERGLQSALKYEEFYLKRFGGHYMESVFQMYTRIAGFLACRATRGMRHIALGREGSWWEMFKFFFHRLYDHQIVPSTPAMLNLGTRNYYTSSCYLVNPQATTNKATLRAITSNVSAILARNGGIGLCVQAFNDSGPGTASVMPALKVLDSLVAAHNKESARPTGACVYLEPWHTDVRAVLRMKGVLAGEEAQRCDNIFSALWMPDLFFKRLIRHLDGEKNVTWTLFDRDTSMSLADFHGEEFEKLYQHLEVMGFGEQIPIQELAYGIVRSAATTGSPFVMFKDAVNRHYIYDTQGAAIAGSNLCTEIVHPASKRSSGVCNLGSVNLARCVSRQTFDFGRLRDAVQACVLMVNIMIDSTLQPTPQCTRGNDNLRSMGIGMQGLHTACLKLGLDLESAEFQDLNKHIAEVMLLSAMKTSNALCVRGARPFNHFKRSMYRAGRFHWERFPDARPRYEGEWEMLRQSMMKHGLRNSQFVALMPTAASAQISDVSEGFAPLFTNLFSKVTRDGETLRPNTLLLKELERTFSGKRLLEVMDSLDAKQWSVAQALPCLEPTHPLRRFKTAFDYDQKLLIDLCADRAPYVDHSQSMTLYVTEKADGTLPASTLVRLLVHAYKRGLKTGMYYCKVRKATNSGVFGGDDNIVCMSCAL
Excerpt: Inhibition of Herpes Simplex Virus (HSV-1) Ribonucleotide Reductase
• a) Preparation of Enzyme HSV-1 ribonucleotide reductase (partially purified) was obtained from quiescent BHK-21/C13 cells infected with strain F HSV-1 virus at 10 plaque forming units/cell as described by E.A. Cohen et al., J. Gen. Virol., 66, 733 (1985). • b) Assay and Results for Exemplified Peptides By following the procedure described by P. Gaudreau et al., J. Biol, Chem., 262, 12413 (1987), the assay results listed in the following Table I were obtained. The assay result for each exemplified compound of formula 1 is expressed as the concentration of the compound producing 50% of the maximal inhibition (IC50) of enzyme activity. The number of units of the enzyme preparation used in each assay was constant, based on the specific activity of the enzyme preparation. The results are relative to the activity obtained in control experiments without the test compound and represent the mean of four assays that varied less than 10% with each other.

HSV-2 = assay: Inhibition of Herpes Simplex Virus (HSV-2) replication in cell culture; assay type: cell-based
Method: Inhibition of Herpes Simplex Virus (HSV-2) Replication in Cell Culture
BHK-21/C13 cells (ATCC CCL 10) are incubated for two days in 150 cm^2 T-flasks (1.5 x 10^6 cells/flask) with alpha-MEM medium (Gibco Canada Inc., Burlington, Ontario, Canada) supplemented with 8% (v/v) fetal bovine serum (FBS, Gibco Canada Inc.). The cells are trypsinized and then transferred to fresh media in a 24 well plate to give 2.5 x 10^5 cells in 750 µL of media per well. The cells are incubated at 37° for a period of 6 h to allow them to adhere to the plate. Thereafter, the cells are washed once with 500 µL of alpha-MEM supplemented with 0.5% (v/v) FBS and then incubated with 750 µL of the same media (low serum) for 3 days. After this period of serum starvation, the low serum medium is removed and the cells are incubated in 500 µL of BBMT for 2 to 3 hours. {BBMT medium is described by P. Brazeau et al., Proc. Natl. Acad. Sci. USA, 79, 7909 (1982).} Thereafter, the cells are infected with HSV-2 (multiplicity of infection = 0.02 PFU/cell) in 100 µL of BBMT medium. (Note: The HSV-2 used was strain HG-52, see Y. Langelier and G. Buttin, J. Gen. Virol., 57, 21 (1981); the virus was stored at -80°.) Following 1 h of virus adsorption at 37°, the media is removed and the cells are washed with BBMT (3 X 250 µL). The cells in each well are incubated with or without (control) appropriate concentrations of the test agent dissolved in 200 µL of BBMT medium. After 29 h of incubation at 37°, the infected cells are harvested by first freezing the plate at -80°, followed by thawing. The cells in each well are scraped off the surface of the well with the help of the melting ice fragments. After complete thawing, the cell suspensions are collected and each well is rinsed with 150 µL of BBMT medium. The viral sample (suspension plus washing) is sonicated gently for 4 min at 4°. Cell debris are removed by centrifugation (1000 times gravity for 10 minutes at 4°). The supernatant is collected and stored at -80° until determination of viral titer.
Viral titration was performed by a modification of the colorimetric assay method of M. Langlois et al., Journal of Biological Standardization, 14, 201 (1986).
More specifically, in a similar manner as described above, BHK-21/C13 cells are trypsinized and transferred to fresh media in a 96 well microtiter plate to give 20,000 cells in 100 µL of media per well. The cells in the prepared plate are incubated at 37° for 2 h. During that time, the viral sample is thawed and sonicated gently for 15 seconds, and log dilutions of the sample are prepared (1/5 sequential: 50 µL of the sample plus 200 µL of BBMT medium, sequential dilutions being done with a multichannel pipette.
On completion of the above 2 hour incubation of the BHK-21/C13 cells, the media is replaced with alpha-MEM medium supplemented with 3% (v/v) FBS. The cells are now ready to be infected with the various sample dilutions of virus. Aliquots (50 µL) of the various dilutions are transferred into the appropriate wells of the plate. The resulting infected cells are incubated for 2 days at 37°. Then 50 µL of a 0.15% (v/v) solution of neutral red dye in Hank's Balanced Salt Solution (pH 7.3, Gibco Canada Inc.) is added to each well. The prepared plate is incubated for 45 min at 37°. Medium from each well is then aspirated and the cells are washed once with 200 µL of Hank's Balanced Salt Solution. […]

[2] = Human alphaherpesvirus 2, Table IV, cell culture assay of example 11, read-out: EC50
[3] = Table I, partially purified enzyme from BHK-21/C13 cells infected with strain F HSV-1, mean of four assays
[4] = Human alphaherpesvirus 2, BHK21 (C13), 29 h, Table II, BHK-21/C13 cells, HSV-2 strain HG-52, 0.02 PFU/cell, 29 h incubation, read-out: EC50

IC50 ([1]; Table IV, assay of example 10) [nM]	EC50 (HSV-2; [2]) [nM]	IC50 [1, 3] [nM]	Structure (SMILES)	further results
370	100000		C=CCC(CC=C)NC(=O)NC(C(=O)CC(CC(=O)C(C)(C)C)C(=O)NC(C(=O)NCC(C)(C)C)C1(C(=O)O)CCCC1)C(C)(C)C [(CH2=CHCH2)2-CHNHC(O) / NHCH2CMe3, (CH2=CHCH2)2-CHNHC(O)-Tbg-CH2-(R)-CH(CH2C(O)CMe3)C(O)-Asp(cyPn)-NHCH2CMe3]	
320	48000		C=CCC(CC=C)NC(=O)NC(C(=O)CC(CC(=O)C(C)(C)C)C(=O)NC(C(=O)NC(C)C(C)(C)C)C1(C(=O)O)CCCC1)C(C)(C)C [(CH2=CHCH2)2-CHNHC(O)-Tbg-CH2-(R)-CH(CH2C(O)CMe3)C(O)-Asp(cyPn)-NH-(R)-CH(Me)CMe3]	
260	35000		CCCCC(CC)NC(=O)NC(C(=O)CC(CC(=O)C(C)(C)C)C(=O)NC(C(=O)NCC(C)(C)C)C1(C(=O)O)CCCC1)C(C)(C)C [(R,S)-EtBuCH-NHC(O) / NHCH2CMe3, (R,S)-EtBuCH-NHC(O)-Tbg-CH2-(R)-CH(CH2C(O)CMe3)C(O)-Asp(cyPn)-NHCH2CMe3]	
230	35000		CCCC(CC)NC(=O)NC(C(=O)CC(CC(=O)C(C)(C)C)C(=O)NC(C(=O)NCC(C)(C)C)C1(C(=O)O)CCCC1)C(C)(C)C [(R,S)-EtPrCH-NHC(O) / NHCH2CMe3, (R,S)-EtPrCH-NHC(O)-Tbg-CH2-(R)-CH(CH2C(O)CMe3)C(O)-Asp(cyPn)-NHCH2CMe3]	
530	65000		CCCCC(CCCC)NC(=O)NC(C(=O)CC(CC(=O)C(C)(C)C)C(=O)NC(C(=O)NCC(C)(C)C)C1(C(=O)O)CCCC1)C(C)(C)C [Bu2CHNHC(O) / NHCH2CMe3, Bu2CHNHC(O)-Tbg-CH2-(R)-CH(CH2C(O)CMe3)C(O)-Asp(cyPn)-NHCH2CMe3]	
		230	CCC(CC)NC(=O)NC(C(=O)CC(CC(=O)C(C)(C)C)C(=O)NC(C(=O)NCC(C)(C)C)C1(C(=O)O)CCCC1)C(C)(C)C [Et2CHNHC(O)-Tbg-CH2-(R)-CH(CH2C(O)-CMe3)C(O)-Asp(cyPn)-NHCH2CMe3]	EC50 (HSV-2; [4]): 56000 nM
		170	CCC(CC)NC(=O)NC(C(=O)CC(CC(=O)N1CCCC1)C(=O)NC(C(=O)NC(CO)CC(C)(C)C)C1(C(=O)O)CCCC1)C(C)(C)C [Et2CHNHC(O)-Tbg-CH2-(S)-CH{CH2C(O)-(pyrrolidino)}C(O)-Asp(cyPn)-γMeLeucinol]	EC50 (HSV-2; [4]): 200000 nM
360	6000		CCCC(CC)(CCC)NC(=O)NC(C(=O)CC(CC(=O)C(C)(C)C)C(=O)NC(C(=O)NC(CC)C(C)(C)C)C1(C(=O)O)CCCC1)C(C)(C)C [EtPr2CNHC(O) / NH-(R)-CH(Et)CMe3, EtPr2CNHC(O)-Tbg-CH2-(R)-CH(CH2C(O)CMe3)C(O)-Asp(cyPn)-NH-(R)-CH(Et)CMe3]	
410	10000		CCCC(CC)(CCC)NC(=O)NC(C(=O)CC(CC(=O)C(C)(C)C)C(=O)NC(C(=O)NC(C)C(C)(C)C)C1(C(=O)O)CCCC1)C(C)(C)C [EtPr2CNHC(O) / NH-(R)-CH(Me)CMe3, EtPr2CNHC(O)-Tbg-CH2-(R)-CH(CH2C(O)CMe3)C(O)-Asp(cyPn)-NH-(R)-CH(Me)CMe3]	
390	58000		CCCC(C)(C)NC(=O)NC(C(=O)CC(CC(=O)C(C)(C)C)C(=O)NC(C(=O)NCC(C)(C)C)C1(C(=O)O)CCCC1)C(C)(C)C [Me2PrCNHC(O) / NHCH2CMe3, Me2PrCNHC(O)-Tbg-CH2-(R)-CH(CH2C(O)CMe3)C(O)-Asp(cyPn)-NHCH2CMe3]	
360			CCCC(C)(CCC)NC(=O)NC(C(=O)CC(CC(=O)C(C)(C)C)C(=O)NC(C(=O)NCC(C)(C)CC)C1(C(=O)O)CCCC1)C(C)(C)C [MePr2CHNHC(O) / NHCH2CMe2Et, MePr2CHNHC(O)-Tbg-CH2-(R)-CH(CH2C(O)CMe3)C(O)-Asp(cyPn)-NHCH2CMe2Et]	EC50 (HSV-2; Human alphaherpesvirus 2, Table IV, cell culture assay of example 11): 29000 nM
280	26000		CCCC(C)(CCC)NC(=O)N[C@H](C(=O)C[C@@H](CC(=O)C(C)(C)C)C(=O)N[C@H](C(=O)NCC(C)(C)C)C1(C(=O)O)CCCC1)C(C)(C)C [MePr2CNHC(O) / NHCH2CMe3, MePr2CNHC(O)-Tbg-CH2-(R)-CH(CH2C(O)CMe3)C(O)-Asp(cyPn)-NHCH2CMe3]	
		320	CC(C)C(C(=O)NC(C(=O)CC(CC(=O)C1CCCC1)C(=O)NC(C(=O)NCC(C)(C)C)C1(C(=O)O)CCCC1)C(C)(C)C)N(C)C(=O)CCc1ccccc1 [PhCH2CH2C(O)-(N-Me)Val-Tbg-CH2-(R)-CH{CH2C(O)-(cyclopentyl)}C(O)-Asp-(cyPn)-NHCH2CMe3]	
340	10000		CCCC(CCC)NC(=O)NC(C(=O)CC(CC(=O)C(C)(C)C)C(=O)NC(C(=O)NC(CC)C(C)(C)C)C1(C(=O)O)CCCC1)C(C)(C)C [Pr2CHNHC(O) / NH-(R)-CH(Et)CMe3, Pr2CHNHC(O)-Tbg-CH2-(R)-CH(CH2C(O)CMe3)C(O)-Asp(cyPn)-NH-(R)-CH(Et)CMe3]	
370	14000		CCCC(CCC)NC(=O)NC(C(=O)CC(CC(=O)C(C)(C)C)C(=O)NC(C(=O)NC(C)CC(C)(C)C)C1(C(=O)O)CCCC1)C(C)(C)C [Pr2CHNHC(O) / NH-(R)-CH(Me)CH2CMe3, Pr2CHNHC(O)-Tbg-CH2-(R)-CH(CH2C(O)CMe3)C(O)-Asp(cyPn)-NH-(R)-CH(Me)CH2CMe3]	
330	16000		CCCC(CCC)NC(=O)NC(C(=O)CC(CC(=O)C(C)(C)C)C(=O)NC(C(=O)NC(C)C(CC)CC)C1(C(=O)O)CCCC1)C(C)(C)C [Pr2CHNHC(O) / NH-(R)-CH(Me)CHEt2, Pr2CHNHC(O)-Tbg-CH2-(R)-CH(CH2C(O)CMe3)C(O)-Asp(cyPn)-NH-(R)-CH(Me)CHEt2]	
		150	CCCC(CCC)NC(=O)NC(C(=O)CC(CC(=O)C(C)(C)C)C(=O)NC(C(=O)NC(CC(C)(C)C)C(=O)O)C1(C(=O)O)CCCC1)C(C)(C)C [Pr2CHNHC(O)-Tbg-CH2-(R)-CH(CH2C(O)-CMe3)C(O)-Asp(cyPn)-γMeLeu-OH]	
690			CCCC(CCC)NC(=O)NC(C(=O)CC(CC(=O)C(C)(C)C)C(=O)NC(C(=O)NC1CCCCC1C)C1(C(=O)O)CCCC1)C(C)(C)C [Pr2CHNHC(O)-Tbg-CH2-(R)-CH(CH2C(O)CMe3)C(O)-Asp(cyPn)-trans-NH-(2-methyl-cyclohexyl)]	
		150	CCC(CC)NC(=O)NC(C(=O)CC(CC(=O)C(C)(C)C)C(=O)NC(C(=O)NC(CO)CC(C)(C)C)C1(C(=O)O)CCCC1)C(C)(C)C [Title Compound of Example 7, Et2CHNHC(O)-Tbg-CH2-(R)-CH(CH2C(O)CMe3)CO-Asp(cyPn)-γMeLeucinol]	

Structure (SMILES)	IC50 ([1]; Table IV, assay of example 10) [nM]	EC50 (HSV-2; [2]) [nM]	IC50 [1, 3] [nM]	further results
CCC(CC)NC(=O)NC(C(=O)CC(CC(=O)C1CCCC1)C(=O)NC(C(=O)NCC(C)(C)C)C1(C(=O)O)CCCC1)C(C)(C)C [Et2CHNHC(O)-Tbg-CH2-(R)-CH{CH2C(O)-(cyclopentyl)}C(O)-Asp(cyPn)-NHCH2CMe3]			220	EC50 (HSV-2; Human alphaherpesvirus 2, BHK21 (C13), 29 h): 50000 nM
